Where two headings read alike, the source gives them in different places.
Legend:
[1] = test system: arachidonic acid-induced ear inflammation; assay type: in vivo, mice
Human opiate κ receptors [2] = target: T1, Human opiate κ receptors (Homo sapiens, UniProt P41145); assay: κ opioid receptor functional assay, [35S]GTPγS binding (assay C); assay type: biochemical; details: for activation at 1 µM: 0.5 h, read-out: % activation functional assay at 1 μM
Human opiate κ receptors [3] = target: T1, Human opiate κ receptors; assay type: binding; design: expressed in transfected cells; host or cells: HEK-293 cell membranes
[4] = test system: acetic acid-induced writhing; assay: Acetic acid-induced writhing assay in mice (assay G); assay type: in vivo; details: s.c.
Protocol: G. Acetic Acid-Induced Writhing Assay in Mice
Analgesic activity against visceral or chemical pain is assessed by application of the test compound prior to application of an i.p. injection of acetic acid. The number of writhing responses that occur in response to acetic acid are counted (see e.g. Barber A. Med. Res. Rev. 1992; 12:525-62 and Ramabadran K. Pharm. Res. 1986,3:263-270).

[5] = test system: oxazolone delayed type hypersensitivity reaction; assay: In vivo model for pruritus associated with the oxazolone model of a delayed type hypersensitivity reaction (assay D); design: species or system mice
Protocol: D. In Vivo Model for Pruritus Associated with the Oxazolone Model of a Delayed Type Hypersensitivity Reaction
Scratching activity in mice is measured after topical application of the test compound.

[6] = test system: Imiquimod-induced psoriasis; assay: Imiquimod-induced psoriasis in mice (assay J); assay type: in vivo, Balb/c mice; details: s.c. or i.v.
Protocol: J. Imiquimod-Induced Psoriasis in Mice
Psoriasis in Balb/c mice is induced by daily application of topical Imiquimod for 8 days. Animal are treated with the test items (topical or systemically). Scratching was monitored. On day 9 the skin phenotype is characterized. Skin is analyzed histologically. Lymph nodes are analyzed by flow cytometry and RT-qPCR.

[7] = test system: chronic oxazolone-induced ear inflammation; assay: In vivo model of chronic oxazolone-induced ear inflammation (assay E); design: species or system mice
Protocol: E. In Vivo Model of Chronic Oxazolone-Induced Ear Inflammation
Mice are challenged several times with oxazolone following an initial sensitization. Ear thickness is measured daily during the treatment period with topical application of the test compound (see e.g. Ottosen E. R. J. Med. Chem. 2003; 46: 5651-5662). At the end of the study ear weight is determined Ears are characterized histologically and by immunofluorescence. Gene expression was quantified (RT-qPCR).

DSS-induced colitis = DSS-induced colitis in mice (assay K); assay type: in vivo, C57BL/6 mice
Protocol: K. DSS-Induced Colitis in Mice
Colitis is induced by treatment of C57BL/6 mice with 2.5% dextran sulfate (DSS) in the drinking water for 7 days. Mice are treated with the test item. Weight is monitored daily. At day 8 mice are scarified. A haemocult test is performed. The size of the colon is measured. Colitis is determined using a scoring system in H&E stains.

vasculitis = assay: Vasculitis model in mice, LPS/TNF-α (assay I); assay type: in vivo, C57BL/6 mice; details: dose dependent
Protocol: I. Vasculitis Model in Mice
C57BL/6 mice receive an intradermal injection of LPS. On the following day vasculitis is induced by intradermal injection of TNF-α. In addition Evan's blue is injected. 24 hours following the injection of TNF-α mice are scarified. Ear thickness is measured and the degree of vasculitis is assessed by counting petechiae. The content of Evan's blue in the ear tissue is a marker for vascular permeability. Ears are analyzed by histology, FACS and RT-qPCR.

[8] = test system: UVB-induced inflammatory pain; assay: UVB-induced inflammatory pain in rats (assay H); assay type: in vivo, Sprague-Dawley rats; details: s.c.
Protocol: H. UVB-Induced Inflammatory Pain In Rats
Male, Sprague-Dawley rats receive a single exposure of UVB radiation to the left hind paw. Mechanical hyperalgesia is assessed using a digital Randall-Selitto device (dRS). Thermal hyperalgesia is measured using a plantar test apparatus (see e.g. Davies S. L. J. Neurosci. Methods 2005; 148:161-166, Bishop T. Pain 2007; 131:70-82 and Graham I. J. Invest. Dermatol. 2004; 122:183-189).

[9] = test system: chloroquine-induced scratching; assay: Effects on chloroquine-induced scratching (assay L); assay type: in vivo; details: intrathecal injection, mice
Protocol: L. Effects on Chloroquine-Induced Scratching
Compounds are intrathecally injected in a volume of 5 μl, 10 min before the i.d. injection of chloroquine (100 μg/10 μl) in the rostral back. Following the i.d. cheek injection, mice are placed in an arena with a clear glass floor and videotaped from beneath for 30 min. Videotapes are reviewed by blinded investigators, who count the number of hindlimb scratch bouts.

[10] = topical, versus vehicle control

T1 sequence (P41145 whole entry): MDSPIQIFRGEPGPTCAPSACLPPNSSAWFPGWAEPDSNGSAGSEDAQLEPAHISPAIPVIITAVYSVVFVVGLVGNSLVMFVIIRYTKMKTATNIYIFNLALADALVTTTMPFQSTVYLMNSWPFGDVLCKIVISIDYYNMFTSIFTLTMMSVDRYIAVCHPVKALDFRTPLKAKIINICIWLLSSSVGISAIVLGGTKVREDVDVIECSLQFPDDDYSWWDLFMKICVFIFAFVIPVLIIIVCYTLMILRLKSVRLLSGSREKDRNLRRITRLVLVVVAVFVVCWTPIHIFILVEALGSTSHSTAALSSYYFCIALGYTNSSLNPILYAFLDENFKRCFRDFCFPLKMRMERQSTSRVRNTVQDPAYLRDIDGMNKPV

Compound: CNC(=O)C(=O)N1CCN(C(=O)Cc2ccc(Cl)c(Cl)c2)[C@@H]2[C@@H](N3CCCC3)CCC[C@@H]21.Cl [Example 118]
- increase in ear thickness [1, 10]: dose dependently prevented the increase
- % activation functional assay at 1 μM (Human opiate κ receptors [2]): 104%
- EC50 (Human opiate κ receptors [2]; read-out: GTPγS EC50): < 10 nM

Compound: CS(=O)(=O)N1CCN(C(=O)Cc2ccc(F)c(Cl)c2)C2C(N3CCC(O)C3)CCCC21.Cl (stereo not shown) [Example 125]
- % binding at 100 nM (Human opiate κ receptors [3]): 80%
- increase in ear thickness [1, 10]: dose dependently prevented the increase
- % activation functional assay at 1 μM (Human opiate κ receptors [2]): 99%
- EC50 (Human opiate κ receptors [2]; read-out: GTPγS EC50): < 10 nM

Compound: COC(=O)N1CCN(C(=O)Cc2ccc(Cl)c(Cl)c2)[C@@H]2[C@@H](N3CCCC3)CCC[C@@H]21 [Example 89, (4aR,5S,8aS)-methyl 4-(2-(3,4-dichlorophenyl)acetyl)-5-(pyrrolidin-1-yl)octahydroquinoxaline-1(2H)-carboxylate]
- number of writhing responses [4]: significant, dose dependent reduction
- number of scratch events ([5]; mice, topical): significantly reduced
- ear thickness ([5]; mice, topical, compared to vehicle treated animals): accelerated decrease
- epidermal thickness, inflammatory infiltrate and epidermal oedema (histology) ([5]; semi-quantitative analysis): reduction
- scratch numbers [6]: lower
- size of the rete ridges ([6]; compared to vehicle control): decreased size
- inflammatory infiltrate (CD117+ mast cells and Gr-1+ neutrophils) ([7]; immunohistochemistry): dose dependent reduction
- ear thickness ([7]; mice, topical, compared to vehicle control): dose dependent decreased
- epidermal thickness, inflammatory infiltrate and epidermal oedema (histology) ([7]; semi-quantitative analysis): reduction
- weight loss (DSS-induced colitis; compared to vehicle control): decreased weight loss
- reduction in colon size induced by DSS (DSS-induced colitis; mouse, in vivo): normalized
- increase in ear thickness ([1]; mouse, in vivo, sc): prevented the increase
- scratching activity ([1]; mouse, in vivo, sc): significantly reduced
- ear thickness (vasculitis): reduction
- inflammatory infiltrate (histology) (vasculitis): reduced inflammatory infiltrate
- number of petechiae (vasculitis): reduced number
- thermal hyperalgesia [8]: significant, dose dependent reduction
- % activation functional assay at 1 μM (Human opiate κ receptors [2]): 100%
- activation at 1 µM (Human opiate κ receptors [2]): 107%

Compound: CNC(=O)C(=O)N1CCN(C(=O)Cc2ccc(Cl)c(Cl)c2)[C@@H]2[C@@H](N3CC[C@H](O)C3)CCC[C@@H]21 [Example 145]
- % binding at 100 nM (Human opiate κ receptors [3]): 62%
- increase in ear thickness [1, 10]: dose dependently prevented the increase
- % activation functional assay at 1 μM (Human opiate κ receptors [2]): 103%
- EC50 (Human opiate κ receptors [2]; read-out: GTPγS EC50): 10 to 100 nM

Compound: CS(=O)(=O)N1CCN(C(=O)Cc2ccc(Cl)c(F)c2)C2C(N3CCC(O)C3)CCCC21.Cl (stereo not shown) [Example 122]
- increase in ear thickness [1, 10]: dose dependently prevented the increase
- % activation functional assay at 1 μM (Human opiate κ receptors [2]): 105%
- EC50 (Human opiate κ receptors [2]; read-out: GTPγS EC50): < 10 nM

Compound: COC(=O)N1CCN(C(=O)Cc2ccc(Cl)c(F)c2)[C@@H]2[C@@H](N3CC[C@H](O)C3)CCC[C@@H]21 [Example 112]
- increase in ear thickness ([1]; mouse, in vivo): dose dependently prevented the increase
- activation at 1 µM (Human opiate κ receptors [2]): 93%
- EC50 (Human opiate κ receptors [2]; GTPγS EC50 (nM)): < 10 nM

Compound: CCCNS(=O)(=O)N1CCN(C(=O)Cc2ccc(Cl)c(Cl)c2)C2C(N3CCC(O)C3)CCCC21.Cl (stereo not shown) [Example 133]
- % binding at 100 nM (Human opiate κ receptors [3]): 74%
- % activation functional assay at 1 μM (Human opiate κ receptors [2]): 105%
- EC50 (Human opiate κ receptors [2]; read-out: GTPγS EC50): < 10 nM

Compound: O=C(Cc1ccc(F)c(F)c1)N1CCN(S(=O)(=O)Cc2ccon2)[C@H]2CCC[C@H](N3CC[C@H](O)C3)[C@H]21 [Example 149]
- % binding at 100 nM (Human opiate κ receptors [3]): 81%
- % activation functional assay at 1 μM (Human opiate κ receptors [2]): 97%
- EC50 (Human opiate κ receptors [2]; read-out: GTPγS EC50): < 10 nM

Compound: COC(=O)c1ccc(C(=O)N2CCN(C(=O)Cc3ccc(Cl)c(Cl)c3)C3C(N4CCCC4)CCCC32)cc1 (racemic) [Example 81]
- chloroquine-evoked scratching [9]: significantly inhibited
- increase in ear thickness [1, 10]: dose dependently prevented the increase
- activation at 1 µM (Human opiate κ receptors [2]): 102%

Compound: O=C(Cc1ccc(Cl)cc1)N1CCN(S(=O)(=O)Cc2ccon2)[C@H]2CCC[C@H](N3CC[C@H](O)C3)[C@H]21 [Example 146]
- % binding at 100 nM (Human opiate κ receptors [3]): 76%
- % activation functional assay at 1 μM (Human opiate κ receptors [2]): 103%
- EC50 (Human opiate κ receptors [2]; read-out: GTPγS EC50): < 10 nM

Compound: COC(=O)N1CCN(C(=O)Cc2ccc(Cl)c(Cl)c2)C2C(N3CCC(C(N)=O)C3)CCCC21.Cl (mixture of isomers) [Example 84]
- % binding at 100 nM (Human opiate κ receptors [3]): 89%
- % activation functional assay at 1 μM (Human opiate κ receptors [2]): 99%
- EC50 (Human opiate κ receptors [2]; read-out: GTPγS EC50): 10 to 100 nM

Compound: O=C(Cc1ccc(Cl)c(Cl)c1)N1CCN(S(=O)(=O)Cc2ccon2)[C@H]2CCC[C@H](N3CC[C@H](O)C3)[C@H]21 [Example 136]
- % binding at 100 nM (Human opiate κ receptors [3]): 96%
- % activation functional assay at 1 μM (Human opiate κ receptors [2]): 108%
- EC50 (Human opiate κ receptors [2]; read-out: GTPγS EC50): < 10 nM

Compound: COC(=O)c1ccc(C(=O)N2CCN(C(=O)Cc3ccc(Cl)c(Cl)c3)[C@@H]3[C@@H](N4CCCC4)CCC[C@@H]32)cc1.Cl [Example 114]
- chloroquine-evoked scratching [9]: significantly inhibited
- increase in ear thickness [1, 10]: dose dependently prevented the increase
- % activation functional assay at 1 μM (Human opiate κ receptors [2]): 93%
- EC50 (Human opiate κ receptors [2]; read-out: GTPγS EC50): 10 to 100 nM

Compound: CCNS(=O)(=O)N1CCN(C(=O)Cc2ccc(Cl)c(Cl)c2)C2C(N3CCC(O)C3)CCCC21.Cl (stereo not shown) [Example 132]
- % binding at 100 nM (Human opiate κ receptors [3]): 71%
- % activation functional assay at 1 μM (Human opiate κ receptors [2]): 106%
- EC50 (Human opiate κ receptors [2]; read-out: GTPγS EC50): < 10 nM
